Measured values as given in publication PMC8550792, “Evolution of kinase polypharmacology across HSP90 drug discovery” (Cell Chemical Biology, 2021).
One block for each molecule: values may come before it.

How the values were obtained:
382 unique human kinases [1] = biological target: T1, 382 unique human kinases (Homo sapiens, UniProt P42345); test: biochemical; type: biochemical; settings: mTOR/FRAP1; compound at 10 uM; duplicate values; read-out: % Enzyme Activity (relative to DMSO controls)
T1 construct: purchased Reaction Biology (HotSpot contract assay)

TRKC = biological target: T2, TRKC (Homo sapiens, UniProt Q16288); test: HotSpot in vitro kinase radiometric assay; type: biochemical; settings: for inhibition at 10 µM: read-out: % inhibition at 10 uM: TRKC, Fig 6C median ± standard deviation (n = 2)
T2 construct: purchased Reaction Biology (HotSpot contract assay)

382 unique human kinases [2] = biological target: T3, 382 unique human kinases (Homo sapiens, UniProt P04626, D769Y); test: biochemical; type: biochemical; settings: ERBB2 (D769Y), 10 uM
T3 construct: purchased Reaction Biology (HotSpot contract assay)

382 unique human kinases [3] = biological target: T4, 382 unique human kinases (Homo sapiens, UniProt P19784); test: biochemical; type: biochemical; settings: CK2a2, 10 uM
T4 construct: purchased Reaction Biology (HotSpot contract assay)

382 unique human kinases [4] = biological target: T5, 382 unique human kinases (Homo sapiens, UniProt Q96S53); test: biochemical; type: biochemical; settings: TESK2, 10 uM
T5 construct: purchased Reaction Biology (HotSpot contract assay)

382 unique human kinases [5] = biological target: T6, 382 unique human kinases (Homo sapiens, UniProt P00519, V299L); test: biochemical; type: biochemical; settings: ABL1 (V299L), [ATP] 5 µM, compound 10 uM
T6 construct: purchased Reaction Biology (HotSpot contract assay)

382 unique human kinases [6] = biological target: T7, 382 unique human kinases (Homo sapiens, UniProt P00533, C797A); test: biochemical; type: biochemical; settings: EGFR (C797A), 10 uM
T7 construct: purchased Reaction Biology (HotSpot contract assay)

382 unique human kinases [7] = biological target: T8, 382 unique human kinases (Homo sapiens, UniProt P15056, G464V); test: biochemical; type: biochemical; settings: BRAF (G464V), 10 uM
T8 construct: purchased Reaction Biology (HotSpot contract assay)

382 unique human kinases [8] = biological target: T9, 382 unique human kinases (Homo sapiens, UniProt P15056, G469A); test: biochemical; type: biochemical; settings: BRAF (G469A), 10 uM
T9 construct: purchased Reaction Biology (HotSpot contract assay)

382 unique human kinases [9] = biological target: T10, 382 unique human kinases (Homo sapiens, UniProt P17948); test: biochemical; type: biochemical; settings: FLT1/VEGFR1, [ATP] 2.5 µM, compound 10 uM
T10 construct: purchased Reaction Biology (HotSpot contract assay)

382 unique human kinases [10] = biological target: T11, 382 unique human kinases (Homo sapiens, UniProt P00519, F317L); test: biochemical; type: biochemical; settings: ABL1 (F317L), [ATP] 5 µM, compound 10 uM
T11 construct: purchased Reaction Biology (HotSpot contract assay)

382 unique human kinases [11] = biological target: T12, 382 unique human kinases (Homo sapiens, UniProt P15056, V600D); test: biochemical; type: biochemical; settings: BRAF (V600D), 10 uM
T12 construct: purchased Reaction Biology (HotSpot contract assay)

382 unique human kinases [12] = biological target: T13, 382 unique human kinases (Homo sapiens, UniProt Q9BWU1); test: biochemical; type: biochemical; settings: CDK19/cyclin C, 10 uM
T13 construct: purchased Reaction Biology (HotSpot contract assay)

382 unique human kinases [13] = biological target: T14, 382 unique human kinases (Homo sapiens, UniProt P04626, D769H); test: biochemical; type: biochemical; settings: ERBB2 (D769H), 10 uM
T14 construct: purchased Reaction Biology (HotSpot contract assay)

382 unique human kinases [14] = biological target: T15, 382 unique human kinases (Homo sapiens, UniProt P15056, V600K); test: biochemical; type: biochemical; settings: BRAF (V600K), 10 uM
T15 construct: purchased Reaction Biology (HotSpot contract assay)

382 unique human kinases [15] = biological target: T16, 382 unique human kinases (Homo sapiens, UniProt P04626); test: biochemical; type: biochemical; settings: ERBB2/HER2, 10 uM
T16 construct: purchased Reaction Biology (HotSpot contract assay)

382 unique human kinases [16] = biological target: T17, 382 unique human kinases (Homo sapiens, UniProt P57078); test: biochemical; type: biochemical; settings: kinase RIPK4, compound 10 uM
T17 construct: purchased Reaction Biology (HotSpot contract assay)

382 unique human kinases [17] = biological target: T18, 382 unique human kinases (Homo sapiens, UniProt P04626, V777L); test: biochemical; type: biochemical; settings: ERBB2 (V777L), compound at 10 uM, duplicate values
T18 construct: purchased Reaction Biology (HotSpot contract assay)

382 unique human kinases [18] = biological target: T19, 382 unique human kinases (Homo sapiens, UniProt P15056, L597V); test: biochemical; type: biochemical; settings: BRAF (L597V), compound at 10 uM, duplicate values
T19 construct: purchased Reaction Biology (HotSpot contract assay)

382 unique human kinases [19] = biological target: T20, 382 unique human kinases (Homo sapiens, UniProt P10721, D816I); test: biochemical; type: biochemical; settings: c-Kit (D816I), 10 uM
T20 construct: purchased Reaction Biology (HotSpot contract assay)

382 unique human kinases [20] = biological target: T21, 382 unique human kinases (Homo sapiens, UniProt P08069); test: biochemical; type: biochemical; settings: IGF1R, compound at 10 uM, duplicate values
T21 construct: purchased Reaction Biology (HotSpot contract assay)

382 unique human kinases [21] = biological target: T22, 382 unique human kinases (Homo sapiens, UniProt O14578); test: biochemical; type: biochemical; settings: STK21/CIT, 10 uM
T22 construct: purchased Reaction Biology (HotSpot contract assay)

382 unique human kinases [22] = biological target: T23, 382 unique human kinases (Homo sapiens, UniProt P07947, T348I); test: biochemical; type: biochemical; settings: YES1 (T348I), compound at 10 uM, duplicate values
T23 construct: purchased Reaction Biology (HotSpot contract assay)

382 unique human kinases [23] = biological target: T24, 382 unique human kinases (Homo sapiens, UniProt P00533, C797S/L858R/T790M); test: biochemical; type: biochemical; settings: EGFR (T790M/C797S/L858R), compound at 10 uM, duplicate values
T24 construct: purchased Reaction Biology (HotSpot contract assay)

ABL2 = ABL2 (Homo sapiens, UniProt P42684); test: NanoBRET intracellular target engagement
[24] = human, in vivo; cited from earlier work
DDR1 = DDR1 (Homo sapiens, UniProt Q08345); test: NanoBRET intracellular target engagement
[25] = read-out: % Enzyme Activity (relative to DMSO controls)

T2 sequence (Q16288 32-839): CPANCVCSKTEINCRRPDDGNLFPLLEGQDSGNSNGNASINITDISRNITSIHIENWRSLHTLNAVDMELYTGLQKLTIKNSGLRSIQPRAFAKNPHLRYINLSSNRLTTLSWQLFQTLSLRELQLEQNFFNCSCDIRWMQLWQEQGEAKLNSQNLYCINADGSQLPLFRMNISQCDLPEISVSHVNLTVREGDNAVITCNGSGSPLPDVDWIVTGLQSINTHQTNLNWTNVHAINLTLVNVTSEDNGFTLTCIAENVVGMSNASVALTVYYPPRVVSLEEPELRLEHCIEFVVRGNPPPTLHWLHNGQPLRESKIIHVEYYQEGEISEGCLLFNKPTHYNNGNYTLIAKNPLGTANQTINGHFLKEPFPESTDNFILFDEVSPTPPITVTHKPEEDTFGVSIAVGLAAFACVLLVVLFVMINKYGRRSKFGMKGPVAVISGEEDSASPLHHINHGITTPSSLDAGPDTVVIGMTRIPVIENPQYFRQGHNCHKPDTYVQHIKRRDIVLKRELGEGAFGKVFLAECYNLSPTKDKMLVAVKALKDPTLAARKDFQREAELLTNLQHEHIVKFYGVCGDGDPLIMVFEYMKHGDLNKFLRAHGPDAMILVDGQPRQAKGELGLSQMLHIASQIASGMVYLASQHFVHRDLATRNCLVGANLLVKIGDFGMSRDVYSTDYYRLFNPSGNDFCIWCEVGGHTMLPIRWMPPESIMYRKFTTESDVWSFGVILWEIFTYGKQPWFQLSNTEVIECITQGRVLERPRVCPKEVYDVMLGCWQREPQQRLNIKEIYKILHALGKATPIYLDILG
T4 sequence (P19784 whole entry): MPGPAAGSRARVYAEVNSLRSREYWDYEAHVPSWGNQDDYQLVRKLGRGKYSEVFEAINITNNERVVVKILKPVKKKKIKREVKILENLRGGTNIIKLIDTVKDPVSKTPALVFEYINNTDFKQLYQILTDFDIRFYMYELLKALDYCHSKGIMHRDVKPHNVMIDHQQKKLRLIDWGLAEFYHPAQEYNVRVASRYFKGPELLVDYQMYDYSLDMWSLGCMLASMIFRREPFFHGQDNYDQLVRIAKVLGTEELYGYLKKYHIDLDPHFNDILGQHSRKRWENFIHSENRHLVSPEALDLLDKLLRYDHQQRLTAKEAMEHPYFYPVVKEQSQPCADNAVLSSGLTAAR
T17 sequence (P57078 whole entry): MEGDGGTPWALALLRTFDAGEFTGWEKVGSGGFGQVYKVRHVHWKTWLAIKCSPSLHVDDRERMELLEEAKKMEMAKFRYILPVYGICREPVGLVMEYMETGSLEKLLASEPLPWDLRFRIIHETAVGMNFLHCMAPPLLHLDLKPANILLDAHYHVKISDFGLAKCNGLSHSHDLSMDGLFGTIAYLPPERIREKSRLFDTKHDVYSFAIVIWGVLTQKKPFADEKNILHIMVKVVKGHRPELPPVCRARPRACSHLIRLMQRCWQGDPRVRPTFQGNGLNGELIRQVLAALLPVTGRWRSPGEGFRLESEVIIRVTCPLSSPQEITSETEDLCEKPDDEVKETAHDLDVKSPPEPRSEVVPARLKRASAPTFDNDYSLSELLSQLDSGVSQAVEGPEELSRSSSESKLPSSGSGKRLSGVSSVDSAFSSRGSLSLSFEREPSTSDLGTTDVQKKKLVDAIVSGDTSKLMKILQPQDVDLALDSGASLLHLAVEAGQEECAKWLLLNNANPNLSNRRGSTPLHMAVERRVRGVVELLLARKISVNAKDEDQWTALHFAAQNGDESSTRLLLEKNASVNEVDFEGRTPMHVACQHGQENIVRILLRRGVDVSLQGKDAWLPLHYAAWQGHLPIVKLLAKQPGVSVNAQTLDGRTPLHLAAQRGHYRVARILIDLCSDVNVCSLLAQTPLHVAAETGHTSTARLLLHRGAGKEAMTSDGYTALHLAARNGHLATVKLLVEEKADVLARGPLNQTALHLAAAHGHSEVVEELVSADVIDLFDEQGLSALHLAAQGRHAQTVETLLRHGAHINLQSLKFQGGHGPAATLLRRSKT
T13 sequence (Q9BWU1 whole entry): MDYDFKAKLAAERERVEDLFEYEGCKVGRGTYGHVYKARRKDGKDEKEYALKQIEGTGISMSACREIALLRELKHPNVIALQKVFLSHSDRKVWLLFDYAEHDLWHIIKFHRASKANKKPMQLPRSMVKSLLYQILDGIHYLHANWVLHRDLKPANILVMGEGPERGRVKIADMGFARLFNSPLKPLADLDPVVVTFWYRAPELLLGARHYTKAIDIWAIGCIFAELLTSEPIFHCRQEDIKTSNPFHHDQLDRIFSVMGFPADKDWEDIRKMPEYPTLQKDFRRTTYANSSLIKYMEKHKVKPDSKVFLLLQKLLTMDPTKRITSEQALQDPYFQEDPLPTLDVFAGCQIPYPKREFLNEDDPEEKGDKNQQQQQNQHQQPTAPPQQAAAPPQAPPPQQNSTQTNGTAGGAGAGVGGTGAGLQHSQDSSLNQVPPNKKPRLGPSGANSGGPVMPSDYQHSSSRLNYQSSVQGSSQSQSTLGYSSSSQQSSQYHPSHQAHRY
T10 sequence (P17948 27-1338): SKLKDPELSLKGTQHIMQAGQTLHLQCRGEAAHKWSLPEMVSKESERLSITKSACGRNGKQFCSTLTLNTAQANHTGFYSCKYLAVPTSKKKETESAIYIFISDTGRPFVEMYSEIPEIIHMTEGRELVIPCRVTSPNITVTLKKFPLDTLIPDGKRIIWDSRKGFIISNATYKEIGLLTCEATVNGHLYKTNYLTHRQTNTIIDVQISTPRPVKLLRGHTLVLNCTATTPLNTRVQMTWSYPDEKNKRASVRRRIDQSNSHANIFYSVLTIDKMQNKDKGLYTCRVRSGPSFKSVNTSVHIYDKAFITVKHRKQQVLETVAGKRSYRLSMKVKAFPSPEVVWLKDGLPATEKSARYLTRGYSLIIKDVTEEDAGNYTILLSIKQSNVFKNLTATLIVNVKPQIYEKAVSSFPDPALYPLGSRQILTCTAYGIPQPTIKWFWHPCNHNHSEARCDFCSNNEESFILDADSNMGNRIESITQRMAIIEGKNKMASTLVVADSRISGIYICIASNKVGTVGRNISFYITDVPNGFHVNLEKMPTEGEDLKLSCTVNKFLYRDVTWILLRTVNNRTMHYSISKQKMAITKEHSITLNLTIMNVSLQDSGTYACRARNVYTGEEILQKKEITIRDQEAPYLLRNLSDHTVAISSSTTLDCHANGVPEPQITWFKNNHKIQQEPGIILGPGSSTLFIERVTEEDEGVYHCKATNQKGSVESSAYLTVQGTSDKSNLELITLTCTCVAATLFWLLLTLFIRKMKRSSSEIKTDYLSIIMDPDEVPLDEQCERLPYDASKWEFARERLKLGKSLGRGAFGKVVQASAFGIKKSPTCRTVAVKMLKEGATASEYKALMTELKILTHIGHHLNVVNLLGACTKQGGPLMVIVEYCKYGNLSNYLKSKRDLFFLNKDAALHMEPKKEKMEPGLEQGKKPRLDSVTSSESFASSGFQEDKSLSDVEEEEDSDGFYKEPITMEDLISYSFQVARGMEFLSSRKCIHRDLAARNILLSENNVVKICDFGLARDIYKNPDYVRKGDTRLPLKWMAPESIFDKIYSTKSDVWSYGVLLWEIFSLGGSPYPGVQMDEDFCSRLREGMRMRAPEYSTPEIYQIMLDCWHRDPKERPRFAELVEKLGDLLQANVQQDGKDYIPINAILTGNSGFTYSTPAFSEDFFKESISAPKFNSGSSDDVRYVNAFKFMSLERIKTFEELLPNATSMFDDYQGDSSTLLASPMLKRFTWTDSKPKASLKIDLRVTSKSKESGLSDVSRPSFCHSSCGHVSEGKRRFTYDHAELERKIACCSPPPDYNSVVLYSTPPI
T5 sequence (Q96S53 whole entry): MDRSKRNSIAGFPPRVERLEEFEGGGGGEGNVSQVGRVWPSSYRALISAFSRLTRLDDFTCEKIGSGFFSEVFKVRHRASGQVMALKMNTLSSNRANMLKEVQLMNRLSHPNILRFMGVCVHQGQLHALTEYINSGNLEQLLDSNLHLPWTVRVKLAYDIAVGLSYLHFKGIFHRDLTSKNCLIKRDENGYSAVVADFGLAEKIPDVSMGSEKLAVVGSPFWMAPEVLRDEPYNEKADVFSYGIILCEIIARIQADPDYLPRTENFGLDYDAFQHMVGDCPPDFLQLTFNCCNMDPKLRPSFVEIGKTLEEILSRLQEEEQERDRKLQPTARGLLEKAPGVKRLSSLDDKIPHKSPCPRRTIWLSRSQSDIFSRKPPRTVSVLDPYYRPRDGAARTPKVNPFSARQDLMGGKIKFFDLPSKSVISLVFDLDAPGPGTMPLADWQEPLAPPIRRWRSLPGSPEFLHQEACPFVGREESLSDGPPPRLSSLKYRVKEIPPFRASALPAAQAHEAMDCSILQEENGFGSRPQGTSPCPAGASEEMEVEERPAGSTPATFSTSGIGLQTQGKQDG
T23 sequence (P07947 whole entry T348I): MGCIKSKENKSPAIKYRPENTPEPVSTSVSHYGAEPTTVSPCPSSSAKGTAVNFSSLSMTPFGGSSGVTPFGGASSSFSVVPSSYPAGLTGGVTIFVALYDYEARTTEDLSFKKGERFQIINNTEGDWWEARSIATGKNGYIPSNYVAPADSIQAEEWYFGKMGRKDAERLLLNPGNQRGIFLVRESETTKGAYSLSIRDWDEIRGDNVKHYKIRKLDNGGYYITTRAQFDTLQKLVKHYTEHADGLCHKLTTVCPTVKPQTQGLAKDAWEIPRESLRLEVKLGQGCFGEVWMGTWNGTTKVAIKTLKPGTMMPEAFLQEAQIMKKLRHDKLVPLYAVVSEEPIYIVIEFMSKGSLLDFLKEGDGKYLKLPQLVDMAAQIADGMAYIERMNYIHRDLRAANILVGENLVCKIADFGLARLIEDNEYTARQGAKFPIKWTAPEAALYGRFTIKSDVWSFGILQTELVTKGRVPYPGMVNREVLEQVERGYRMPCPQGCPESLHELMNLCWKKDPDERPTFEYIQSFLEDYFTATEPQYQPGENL

Structure (SMILES): CC(C)c1cc(-c2n[nH]c(=O)n2-c2ccc3c(ccn3C)c2)c(O)cc1O [Ganetespib (STA9090)]
remaining activity at 10 µM (382 unique human kinases [1]): 107%

Structure (SMILES): CCNC(=O)c1noc(-c2cc(C(C)C)c(O)cc2O)c1-c1ccc(CN2CCOCC2)cc1 [Luminespib]
inhibition at 10 µM (TRKC): 4 ± 2%
% Enzyme Activity (relative to DMSO controls) (382 unique human kinases [2]): 99.76%
remaining activity at 10 µM (382 unique human kinases [2]; [25]): 100%
% Enzyme Activity (relative to DMSO controls) (382 unique human kinases [3]): 108.66%
remaining activity at 10 µM (382 unique human kinases [3]; [25]): 111%
% Enzyme Activity (relative to DMSO controls) (382 unique human kinases [4]): 98.62%
remaining activity at 10 µM (382 unique human kinases [4]; [25]): 100%
% Enzyme Activity (relative to DMSO controls) (382 unique human kinases [5]): 31.43%
remaining activity at 10 µM (382 unique human kinases [5]; [25]): 31.8%
% Enzyme Activity (relative to DMSO controls) (382 unique human kinases [6]): 99.37%
remaining activity at 10 µM (382 unique human kinases [6]; [25]): 102%
% Enzyme Activity (relative to DMSO controls) (382 unique human kinases [7]): 97.60%
remaining activity at 10 µM (382 unique human kinases [7]; [25]): 97.9%
% Enzyme Activity (relative to DMSO controls) (382 unique human kinases [8]): 98.83%
remaining activity at 10 µM (382 unique human kinases [8]; [25]): 99.7%
% Enzyme Activity (relative to DMSO controls) (382 unique human kinases [9]): 90.88%
remaining activity at 10 µM (382 unique human kinases [9]; [25]): 91.3%
% Enzyme Activity (relative to DMSO controls) (382 unique human kinases [10]): 5.92%
remaining activity at 10 µM (382 unique human kinases [10]; [25]): 6.23%
% Enzyme Activity (relative to DMSO controls) (382 unique human kinases [11]): 98.35%
remaining activity at 10 µM (382 unique human kinases [11]; [25]): 100%
% Enzyme Activity (relative to DMSO controls) (382 unique human kinases [12]): 95.24%
remaining activity at 10 µM (382 unique human kinases [12]; [25]): 96.2%
% Enzyme Activity (relative to DMSO controls) (382 unique human kinases [13]): 99.65%
remaining activity at 10 µM (382 unique human kinases [13]; [25]): 102%
% Enzyme Activity (relative to DMSO controls) (382 unique human kinases [14]): 98.47%
remaining activity at 10 µM (382 unique human kinases [14]; [25]): 99.2%
% Enzyme Activity (relative to DMSO controls) (382 unique human kinases [15]): 97.41%
remaining activity at 10 µM (382 unique human kinases [15]; [25]): 98.2%

Structure (SMILES): CCNC(=O)c1noc(-c2cc(C(C)C)c(O)cc2O)c1-c1ccc(CN2CCOCC2)cc1 [Luminespib (AUY-922)]
% Enzyme Activity (relative to DMSO controls) (382 unique human kinases [16]): 85.29%
remaining activity at 10 µM (382 unique human kinases [16]; [25]): 87.2%
% Enzyme Activity (relative to DMSO controls) (382 unique human kinases [17]): 104.18%
remaining activity at 10 µM (382 unique human kinases [17]; [25]): 105%
% Enzyme Activity (relative to DMSO controls) (382 unique human kinases [18]): 104.65%
remaining activity at 10 µM (382 unique human kinases [18]; [25]): 107%
% Enzyme Activity (relative to DMSO controls) (382 unique human kinases [19]): 72.16%
remaining activity at 10 µM (382 unique human kinases [19]; [25]): 73.3%
% Enzyme Activity (relative to DMSO controls) (382 unique human kinases [20]): 104.49%
remaining activity at 10 µM (382 unique human kinases [20]; [25]): 106%
% Enzyme Activity (relative to DMSO controls) (382 unique human kinases [21]): 76.27%
remaining activity at 10 µM (382 unique human kinases [21]; [25]): 78.4%
% Enzyme Activity (relative to DMSO controls) (382 unique human kinases [22]): 101.23%
remaining activity at 10 µM (382 unique human kinases [22]; [25]): 103%
% Enzyme Activity (relative to DMSO controls) (382 unique human kinases [23]): 100.18%
remaining activity at 10 µM (382 unique human kinases [23]; [25]): 100%

% Enzyme Activity (relative to DMSO controls) (TRKC; TRKC, 10uM, ATP 100 uM, Data 1, Data 2): 86.46%
remaining activity at 10 µM (TRKC; TRKC, 10uM, ATP 100 uM, Data 1, Data 2, read-out: % Enzyme Activity (relative to DMSO controls)): 94.2%
inhibition at 10 µM (TRKC): 10 ± 5%
Structure (SMILES): CCNC(=O)c1noc(-c2cc(Cl)c(O)cc2O)c1-c1ccc(OC)cc1 [VER-50589]

Structure (SMILES): CC(C)c1cc(-c2n[nH]c(=O)n2-c2ccc3c(ccn3C)c2)c(O)cc1O [Ganetespib]
EC50 (ABL2): 21.1 µM
remaining activity at 100 µM (ABL2; HEK293, read-out: %Normalized Bret Response, ABL2 NanoBRET, HEK293, Drug Conc. 0.0001 M): 22.6%
Cmax,total [24]: 6 to 12 µM
EC50 (DDR1): 75.5 µM
remaining activity at 100 µM (DDR1; HEK293, read-out: %Normalized Bret Response, DDR1 NanoBRET, HEK293, Drug Conc. 0.0001 M): 37.5%
